Source: EP2853565A1, “Glutamate receptor photomodulators” (Consejo Superior De Investigaciones Científicas, priority 2013, dated 2015)

Columns and labels:
[1] = biological target: T1, rat metabotropic glutamate receptor 5 (mGlu5) (Rattus norvegicus, UniProt P31424); assay: Single-cell calcium imaging (Fura-2) of quisqualate-evoked calcium oscillations, with photoisomerization by 390/490 nm light; format: cell-based; details: 3 µM quisqualate
T1 construct: expressed in transfected cells; host or cells: HEK tsA201 cells
Experimental: Cell Culture and Transient Transfection: Human embryonic kidney (HEK) tsA201 cells were maintained at 37 °C and humidified atmosphere with 5% CO2; cells were grown in Dulbecco's Modified Eagle's Medium/Nutrient Mixture F-12 Ham (DMEM/F12, 1:1) medium, supplemented with 10% Fetal Bovine Serum (FBS) and antibiotics (1% Penicillin/Streptomycin). Once at confluence, culture flasks were washed twice with PBS and harvested with 300 µl Accutase. Expression of rat mGlu5a was induced by transient transfection of the cDNA-containing plasmid with X-tremeGENE 9 DNA Transfection Reagent. For transfection, cells were seeded at a concentration of 10^6 cells per well on 6-multiwell plates with a final volume of 2ml, and immediately transfected following manufacturer's instructions (100 µl mixture of 3:1 (µl:µg) of X-tremeGENE 9 DNA TR:mGlu5a plasmid in serum-free medium, 20 minutes incubation). About 24h after transfection, HEK tsA201 cells transiently overexpressing mGlu5a were seeded onto 15 mm glass coverslips pre-treated with Poly-L-Lysine to allow cell adhesion. Seeding concentration was maintained between 2/4·10^5 cells to get preconfluent cultures at the time of experiment. Transfected cells were used for single-cell calcium imaging experiments between 48 and 72 hours after transfection.
Single-cell Calcium Imaging: At the time of experiments, glass coverslips were mounted onto the recording chamber, and cells were loaded with the high affinity, ratiometric, intracellular calcium indicator Fura-2 AM; the dye was incubated during 30 minutes at 37°C and 5% CO2, at a final concentration of 10 µM in Ca^2+-free extracellular solution (ES, -Ca^2+). We used a ratiometric calcium sensor in order to avoid bleaching artefacts. Cells were then carefully rinsed with fresh ES, three to four times, before the recording chamber was placed on an inverted fully-motorised digital microscope (iMic 2000, Till Photonics, Gräfelfing, Germany). Images were acquired at room temperature with a UV Apochromat 40x oil objective lens (Olympus, Tokio, Japan). Fura-2 AM was excited consecutively for 10 ms at two different wavelengths (340 and 380 nm) as indicated by the manufacturer (Life Technologies, Paisley, UK) by using a Polychrome V light source (Till Photonics) and a 505 nm dichroic beamsplitter (Chroma Technology, Below Falls, VT, USA); emission at 510 nm was filtered by a D535/40nm emission filter (Chroma Technology) and finally collected by a cooled CCD camera (Interline Transfer IMAGO QE, Till Photonics). The fluorescence measurements (excitation + emission recording) were carried out every 2 seconds, and each measurement takes about 10-50 ms. The 340 and 380 nm images were stored by the TILLvisION imaging software (Till Photonics); the ratio of the emission when the sample was excited at 340 nm and the emission when it was excited at 380 nm was recorded and its mean value was calculated for each cell using the same software. Higher ratios correspond to higher intracellular calcium concentrations.
Agonists and allosteric modulators addition was obtained by carefully pipetting an initial 1:30 dilution of the compound directly into the accessory pool of the recording chamber, obtaining a final dilution of 1:1000 (total DMSO concentration was always lower than 1%). Activation of the agonist was induced in HEK tsA201 mGlu5a transfected cells with the glutamate analogue Quisqualic acid (3 µM). Only evoked, sustained intracellular calcium oscillations were taken into account as consistent cell responses to the application of the agonist; different responses (such as single-peak, peak-and-plateau, etc.), as well as spontaneously oscillating cells, were discarded as unsuitable for calculating the oscillatory frequency.
Solutions and Reagents: The extracellular solution (ES) used for single-cell calcium imaging contained: 140 mM NaCl, 5.4 mM KCI, 1 mM MgCl2, 10 mM HEPES, 10 mM glucose and 2 mM CaCl2 adjusted to pH 7.4 with NaOH. […]

[2] = UV-VIS absorption spectrum before and after irradiation; format: physicochemical; details: solution in DMSO, irradiation with ultraviolet light (380 nm)
[3] = Lipophilicity and solubility observed on handling (data not shown); format: physicochemical
Description: SIB-1757 (48) (Sigma Aldrich) is a moderate-affinity non-competitive antagonist of mGlu5 [J. Pharmacol. Exp. Thr., 1999, 290, 170-181]. […] However, we tested the molecule on a cell line heterogously expressing mGlu5, to ensure that the biological effect of SIB-1757 (48) on the target receptor is not light dependent. […] Moreover, we observed a high lipophilicity of the molecule, and also a low solubility, which make SIB-1757 (48) quite uneasy to handle for biological applications (not shown).

T1 sequence (P31424 21-1171 isoform P31424-2 limits assumed): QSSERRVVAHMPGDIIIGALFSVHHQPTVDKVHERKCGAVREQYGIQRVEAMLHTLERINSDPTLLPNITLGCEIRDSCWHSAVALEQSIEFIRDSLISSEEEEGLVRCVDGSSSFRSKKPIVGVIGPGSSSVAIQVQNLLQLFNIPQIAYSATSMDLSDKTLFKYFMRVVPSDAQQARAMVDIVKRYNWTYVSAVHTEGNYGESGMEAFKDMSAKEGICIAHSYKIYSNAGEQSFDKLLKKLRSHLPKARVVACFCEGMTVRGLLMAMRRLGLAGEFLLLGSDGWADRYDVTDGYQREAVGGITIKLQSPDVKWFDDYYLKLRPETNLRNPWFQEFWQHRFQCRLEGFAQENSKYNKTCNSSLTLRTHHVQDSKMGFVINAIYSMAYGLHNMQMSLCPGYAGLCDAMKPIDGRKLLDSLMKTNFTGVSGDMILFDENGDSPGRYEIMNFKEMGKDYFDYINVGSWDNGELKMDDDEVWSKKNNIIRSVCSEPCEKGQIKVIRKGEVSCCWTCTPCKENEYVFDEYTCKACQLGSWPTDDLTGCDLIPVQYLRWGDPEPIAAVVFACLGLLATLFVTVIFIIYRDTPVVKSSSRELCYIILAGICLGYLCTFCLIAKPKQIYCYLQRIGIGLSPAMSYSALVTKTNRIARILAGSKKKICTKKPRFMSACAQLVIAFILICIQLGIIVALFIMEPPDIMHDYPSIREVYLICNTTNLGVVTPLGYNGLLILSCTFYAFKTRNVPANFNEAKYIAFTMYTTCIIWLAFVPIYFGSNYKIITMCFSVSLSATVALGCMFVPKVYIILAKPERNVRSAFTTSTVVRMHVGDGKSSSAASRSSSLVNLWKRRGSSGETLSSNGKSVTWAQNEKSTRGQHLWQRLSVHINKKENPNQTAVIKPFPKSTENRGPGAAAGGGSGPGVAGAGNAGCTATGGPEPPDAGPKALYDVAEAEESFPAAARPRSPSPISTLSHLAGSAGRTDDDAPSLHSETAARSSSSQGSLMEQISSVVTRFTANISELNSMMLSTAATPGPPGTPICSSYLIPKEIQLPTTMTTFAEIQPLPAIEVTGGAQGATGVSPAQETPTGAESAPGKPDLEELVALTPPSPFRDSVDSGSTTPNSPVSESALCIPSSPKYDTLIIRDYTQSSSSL

In the case of `Cc1ccc(O)c(/N=N/c2ccccc2)n1` [SIB-1757], the “effect on mGlu5 response (calcium oscillations)” value ([1]; HEK tsA201 cells) is reported as “clearly an antagonist of mGlu5”, the “light dependence of the activity on mGlu5” value ([1]; UV (380/390 nm) and visible (500/490 nm) light) is reported as “not light-dependent” and the “photoswitch in the UV-VIS absorption spectrum” value [2] is reported as “did not reveal any photoswitch”. For the same compound, the lipophilicity [3] was “high” and the solubility [3] was “low”.
